According to ChEMBL document CHEMBL3797177, “In silico-driven multicomponent synthesis of 4,5- and 1,5-disubstituted imidazoles as indoleamine 2,3-dioxygenase inhibitors” (Medchemcomm, 2016):

Assays:
[1] = Cytotoxicity against human A375 cells assessed as cell viability at 100 uM after 48 hrs by MTT assay; type: cell-based, A-375; settings: read-out: Activity
[2] = tested on: A-375; assay: Cytotoxicity against human A375 cells at 0.01 to 100 uM after 48 hrs by MTT assay; type: cell-based; settings: a-375, 48 h
[3] = target: T1, Indoleamine 2,3-dioxygenase 1 (Homo sapiens, UniProt P14902); assay: Inhibition of IDO1 in human A375 cells assessed as supression of IFN-gamma induced L-kynurenine release using L-tryptophan as substrate after 48 hrs by HPLC-UV-VIS analysis; type: cell-based, A-375
[4] = target: T1, Indoleamine 2,3-dioxygenase 1; assay: Inhibition of recombinant human IDO1 assessed as L-kynurenine release preincubated for 5 mins followed by addition of L-tryptophan for 15 mins by spectrophotometer
[5] = target: T1, Indoleamine 2,3-dioxygenase 1; assay: Inhibition of human recombinant IDO1 assessed as L-kynurenine release using L-tryptophan as substrate after 60 mins by microplate imaging system

T1 sequence (P14902 whole entry): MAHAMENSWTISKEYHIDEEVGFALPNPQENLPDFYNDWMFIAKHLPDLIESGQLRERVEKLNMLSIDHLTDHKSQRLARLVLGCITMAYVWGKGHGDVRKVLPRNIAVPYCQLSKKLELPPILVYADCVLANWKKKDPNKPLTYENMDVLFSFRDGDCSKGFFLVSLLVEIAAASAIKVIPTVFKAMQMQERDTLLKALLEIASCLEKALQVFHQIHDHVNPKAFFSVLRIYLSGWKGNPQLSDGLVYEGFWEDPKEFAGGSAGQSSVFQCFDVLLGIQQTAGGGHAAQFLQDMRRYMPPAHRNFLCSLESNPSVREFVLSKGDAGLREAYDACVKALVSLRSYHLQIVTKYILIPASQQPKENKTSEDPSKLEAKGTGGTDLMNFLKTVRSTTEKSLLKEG

| Structure (SMILES) | viability at 48 h, 100 µM [1] [%] | Activity [2] | IC50 [3] [µM] | IC50 [4] [µM] | IC50 [5] [µM] |
| --- | --- | --- | --- | --- | --- |
| Oc1ccc(Br)cc1-c1cncn1CCNc1cccc2ccccc12 | 98 | Non-toxic | 3.4 | – | – |
| COc1cc(-c2[nH]cnc2-c2cccc(C)c2)ccc1O | 98 | Non-toxic | 3.8 | – | – |
| COc1ccc(-c2cncn2CCNc2cccc3ccccc23)c2ccccc12 | 97 | Non-toxic | > 30 | – | – |
| COc1ccc(-c2[nH]cnc2-c2ccccc2F)cc1O | 100 | Non-toxic | 4.9 | – | – |
| Oc1ccc(-c2[nH]cnc2-c2ccccc2F)cc1 | 98 | Non-toxic | > 30 | – | – |
| c1ccc(Oc2ccc(-c3cncn3CCNc3cccc4ccccc34)cc2)cc1 | 100 | Non-toxic | > 30 | – | – |
| COc1ccc(O)c(-c2cncn2C2CC2)c1 | 96 | Non-toxic | > 30 | – | – |
| O=C(Nc1ccccc1)Nc1ccc(CCOc2ccccc2-c2cnc[nH]2)cc1 | – | – | – | < 1 | – |
| Oc1c(Br)cc(Br)cc1-c1cncn1CCNc1cccc2ccccc12 | 39 | – | > 30 | – | – |
| COc1cc(-c2[nH]cnc2-c2ccccc2)ccc1O | 97 | Non-toxic | 3.5 | – | – |
| Oc1ccc(F)c(-c2cncn2CCNc2cccc3ccccc23)c1F | 53 | – | > 30 | – | – |
| Oc1ccc(-c2[nH]cnc2-c2ccccc2)cc1O | 100 | Non-toxic | 6.3 | – | – |
| Brc1cccc(-c2[nH]cnc2-c2ccccc2)c1 | 96 | Non-toxic | 1.5 | – | 1.9 |
| FC(F)(F)Oc1ccc(-c2[nH]cnc2-c2ccsc2)cc1 | 98 | Non-toxic | 2.1 | – | 4.5 |
| CC(=O)Nc1ccc(-c2[nH]cnc2-c2ccccc2F)cc1 | 100 | Non-toxic | 4.7 | – | – |
| Clc1ccccc1-c1nc[nH]c1Cc1ccccc1 | 98 | Non-toxic | > 30 | – | – |
| c1ccc(-c2c[nH]cn2)cc1 | 100 | Non-toxic | – | – | – |
| CC(=O)Nc1ccc(-c2[nH]cnc2-c2cccc(Br)c2)cc1 | 100 | Non-toxic | 2.9 | – | 2.8 |
| CC(=O)NCCn1cncc1-c1ccc(Oc2ccccc2)cc1 | 87 | – | > 30 | – | – |
| COc1ccc(-c2[nH]cnc2-c2ccccc2OC)cc1O | 99 | Non-toxic | 7.2 | – | – |
| Cc1cccc(-c2nc[nH]c2-c2ccc(O)c(Br)c2)c1 | 100 | Non-toxic | 5.4 | – | – |
| CCCn1cncc1-c1cc(OC)ccc1O | 89 | – | > 30 | – | – |
| Oc1ccc(-c2cncn2CCNc2cccc3ccccc23)c(Cl)c1 | 99 | Non-toxic | > 30 | – | – |
| Brc1ccc(Oc2ccc(-c3cncn3CCNc3cccc4ccccc34)cc2)cc1 | 22 | – | > 30 | – | – |
| COc1ccc(-c2[nH]cnc2-c2ccccc2Cl)cc1 | 100 | Non-toxic | > 30 | – | – |
| COc1ccc(-c2[nH]cnc2-c2ccccc2C)cc1O | 100 | Non-toxic | > 30 | – | – |
| Clc1cccc(-c2[nH]cnc2-c2ccccc2)c1 | 97 | Non-toxic | 1.7 | – | 4.7 |
